Data: patent US11066455B2, “Tmem100 peptides and variants thereof and their use in treating or preventing diseases or conditions” (The Johns Hopkins University, priority 2014, dated 2021)
Entries after “also recorded” stand apart in the source; their conditions may differ. Read-outs that look alike come from different tables or passages of the source. Peptide text beside a SMILES is read from it. * marks the point of attachment. Myristoyl = CCCCCCCCCCCCCC(=O)*

Tests used:
[1] = test system: ongoing neuropathic pain in SNL rats; experiment: Conditioned place preference test for ongoing pain in SNL rats; format: in vivo, rat; conditions: i.p.
Source text: Ongoing, or spontaneous, pain, which is most bothersome to patients, is difficult to treat and difficult to study in animals. The conditioned place preference test has been successfully developed to reveal the presence of non-evoked, ongoing pain and pain relief based on the preference of an animal for the context paired with a pain-relief treatment. The conditioned place preference can also capture the aversive aspects of pain. Strikingly, many studies have shown that the rodent conditioned place preference test accurately reflects the effectiveness of human clinical treatments. Therefore, this test is a powerful approach to investigate the potential effectiveness of new treatments and mechanisms for relief of ongoing pain. Two previous studies have examined the role of TRPA1 in ongoing pain by the conditioned place preference test. […] Because the antagonists used in those studies (HC030031 and Chem5861528) target TRPA1 monomers, it is possible that T100-Mut can inhibit ongoing pain by modulating the TRPA1/V1 complex. This possibility was tested in rodents with SNL-induced ongoing pain using the conditioned place preference test. […] Systemic administration of gabapentin, an analgesic that is known to alleviate neuropathic pain, was used as a positive control (FIG. 16B).

[2] = test system: paclitaxel (Taxol)-induced mechanical hyperalgesia in wild-type mice; experiment: Paclitaxel-induced mechanical hyperalgesia; format: in vivo, mouse; conditions: day 7 post paclitaxel; intradermal injection of T100-Mut
Experimental: (§1) Mice were placed in a transparent plastic box (4.5×5×10 cm) on a metal mesh and acclimatized for 30 minutes prior to testing. Each mouse was tested more than 5 times at a specific force manually, and the threshold was determined by the lowest force needed to elicit responses more than 50% of the time.
Mice were injected with paclitaxel (Sigma T7191) intraperitoneally at the dose of 6 mg/kg, as previously described (Materazzi et al., 2012). Seven days after paclitaxel injection, the mice were assayed with Von Frey methods for mechanical hyperalgesia, both before and four hours after injection of cell permeable peptides.

[3] = test system: MO-induced pain in TRPV1-/- mice; experiment: Mustard oil injection in TRPV1-/- mice; format: in vivo, mouse
Experimental: as §1
Mice were injected intradermally in the hind paw with 6 μL of 0.2% mustard oil (Sigma-Aldrich 377430) with Hamilton needles (80300). The mice were placed in a plexiglass cylinder, and the total time spent licking and flinching was recorded for the first 10 minutes after injection. Thirty and sixty minutes after injection, the mice were assayed with von Frey filaments for mechanical hyperalgesia.
The sequence from the last 28 amino acids of the C-terminus of the Tmem100-3Q mutant protein was synthesized and myristoylated at its N-terminus (myr-[…]-COOH) (SEQ ID NO: 8) by Twentyfirst Century Biochemicals. […] For the calcium imaging assay, the peptides were added to the calcium imaging buffer with a final concentration of 200 nM and incubated for at least […] at room temperature. For the mice behavioral assays, the peptides (5 μL, 2 mM) were injected subcutaneously in the hindpaw at least 30 minutes before testing. For the rat behavior assays, human T100-3Q (h-T100), a palmitoylated cell permeable peptide mutated based on the C terminus of human sequence in Tmem100, was applied. […]

[4] = test system: neuropathic mechanical hypersensitivity in SNL rats; format: in vivo, rat
Source text: An modified L5 SNL model was produced as described in previously (He et al., 2014; Shechter et al., 2013). Male Sprague-Dawley rats (200-350 g, Harlan, Indianapolis, Ind.) were anesthetized with 2% isoflurane. The left L5 spinal nerve was ligated with a 6-0 silk suture and cut distally. The muscle layer was closed with 4-0 chromic gut suture and the skin closed with metal clips. For intrathecal catheter implantation, a small slit was cut in the atlanto-occipital membrane of rats, into which a saline-filled piece of PE-10 tubing (6-7 cm) was inserted (He et al., 2014). […] Hypersensitivity to punctuate mechanical stimulation was determined with the up-down method by using a series of von Frey filaments (0.38-15.1 g) applied for 4-6 seconds to the test area on the plantar surface of the hindpaw (Chaplan et al., 1994; He et al., 2014). The PWT was determined according to the formula provided by Dixon (Dixon, 1980). […] HC-030031 was purchased from Tocris Bioscience (Bristol, UK). Both drugs were dissolved in 10% dimethylsulfoxide (DMSO), 5% Tween 80 and 85% sterile saline solution. The final working solution which was injected by intrathecal route contained <1% DMSO. The number of animals used in each study was based on experience with similar studies and power analysis calculations. Animals were randomized to the different treatment groups and blinded the experimenter to drug treatment to reduce selection and observation bias. After the experiments were completed, no data point was excluded. STATISTICA 6.0 software (StatSoft, Inc., Tulsa, Okla.) was used to conduct all statistical analyses. The Tukey honestly significant difference (HSD) post-hoc test was used to compare specific data points. Bonferroni correction was applied for multiple comparisons. Two-tailed tests were performed, and data are expressed as mean±SEM; P<0.05 was considered significant in all tests.
(§2) The sequence from the last 28 amino acids of the C-terminus of the Tmem100-3Q mutant protein was synthesized and myristoylated at its N-terminus (myr-[…]-COOH) (SEQ ID NO: 8) by Twentyfirst Century Biochemicals. […] For the calcium imaging assay, the peptides were added to the calcium imaging buffer with a final concentration of 200 nM and incubated for at least […] at room temperature. For the mice behavioral assays, the peptides (5 μL, 2 mM) were injected subcutaneously in the hindpaw at least 30 minutes before testing. For the rat behavior assays, human T100-3Q (h-T100), a palmitoylated cell permeable peptide mutated based on the C terminus of human sequence in Tmem100, was applied. The sequence is Palmitoyl-[…]-COOH (SEQ ID NO: 7).

TRPA1 [5] = test system: T1, TRPA1; experiment: Calcium imaging of HEK293T cells expressing TRPA1 and TRPV1 (MO or CA); format: cell-based
T1 construct: percentage of cells responsive to CA; other: shortened CPP 2 μM; CA 10 μM; HEK293 TRPA1+TRPV1; vs scrambled; percentage of cells responsive to MO; other: peptide 200 nM pre-treatment; 500 nM MO; HEK293T TRPA1+TRPV1; percentage of cells that respond to 100 nM MO and 10 μM CA; other: HEK293T TRPA1+TRPV1, Tmem100-3Q-transfected vs lacki; reduction in the percentage of cells responding to MO
Experimental: (§3) Calcium imaging assays were performed as previously described (Liu et al., 2009). Cells were loaded with 2 μM fura 2-acetomethoxy ester (Molecular Probes) for 30 min in the dark at room temperature or for 45 minutes at 37° C. for DRG and cell lines, respectively. After washing, cells were imaged at 340 and 380 nm excitation to detect intracellular free calcium under a fluorescent microscope (Nikon Eclipse TE2000-S) and Lambda 10B shutter (Sutter Instrument). The cells were bathed in calcium imaging buffer (pH 7.45, 130 mM NaCl, 3 mM KCl, 2.5 mM CaCl2, 10 mM HEPES, 10 mM glucose, 1.2 mM NaHCO3, with sucrose to increase osmolarity to 290 mOsm). The reagents and buffers were applied through a gravity perfusion system at a rate of […], including mustard oil (Sigma 377430), cinnamaldehyde (Sigma C80687), menthol (Sigma M2780), and capsaicin (Sigma M2028). Cells with high baseline 340/380 values (>1.5) were excluded for analysis. For DRG neurons, IB4 staining was performed in the chamber with the dilution of 1:200 (Molecular Probes 121412) for 160 seconds before washing off at the end of each test. Images were processed and analyzed with NIS-Elements BR 2.30 software (Nikon). A responsive cell was defined as one that with greater than a 20% increase in the 340/380 ratio above the baseline. Intracellular calibration for calcium was performed as previously described (Akopian et al., 2007). The data was analyzed with the experimenter blinded to the genotypes or constructs transfected.
(§4) DRG from 3 to 4-week old mice were collected in cold DH10 medium (90% DMEM/F-12, 10% FBS, 100 U/ml penicillin, and 100 μg/ml Streptomycin, Gibco) and treated with enzyme solution in HBSS containing collagenase (1.65 mg/mL, Worthington CLS I) and dispase (3.55 mg/mL, GIBCO 17105-041) at 37° C. for 30 minutes. After trituration and centrifugation, cells were resuspended in DH10, plated on glass coverslips coated with poly-D-lysine (0.5 mg/ml, Stoughton, Mass.) and laminin (10 μg/ml, Invitrogen), and cultured overnight in an incubator at 37° C. The neurons were tested within 24 hours. HEK293T, COS-7, and CHO cells were cultured in a medium consisting of 90% DMEM, 10% FBS, 100 U/mL penicillin, and 100 μg/ml Streptomycin. GlutaMAX (Gibco 35050-061) was also added for CHO cells. For calcium imaging, the cells were plated on glass coverslips coated with poly-D-lysine (0.5 mg/ml, Stoughton, Mass.). In the HEK cell studies the denominator is the cells expressing both TRPA1, TRPV1, and the designated constructs (i.e. Tmem100 or Tmem100-3Q mutant). mCherry:TRPV1:Tmem100 was transfected in 1:8:8 ratio into TRPA1 stable cell line (obtained from N. Tigue from GlaxoSmithKline) and used mCherry as the marker for the cells expressing the constructs 18 hours after transfection with Lipofectamine 2000. The transfection efficiency for Tmem100+TRPV1+TRPA1 triple-positive cells is 27±3%. This efficiency was determined by mCherry(+) divided by total number of cells in the bright fields.
as §2

TRPA1 [6] = target: T2, TRPA1 (UniProt O75762); experiment: as above; format: cell-based
T2 construct: other: cells expressing A1+V1; other: cells expressing A1+V1+Tmem100
Experimental: as §3, §4, §2

[7] = target: TRPA1 (expressed in heterologous cells: CHO, HEK293T); experiment: cell-based or functional assay
TRPA1 (expressed in heterologous cells: CHO, HEK293T), sequence (Q8BLA8 whole entry): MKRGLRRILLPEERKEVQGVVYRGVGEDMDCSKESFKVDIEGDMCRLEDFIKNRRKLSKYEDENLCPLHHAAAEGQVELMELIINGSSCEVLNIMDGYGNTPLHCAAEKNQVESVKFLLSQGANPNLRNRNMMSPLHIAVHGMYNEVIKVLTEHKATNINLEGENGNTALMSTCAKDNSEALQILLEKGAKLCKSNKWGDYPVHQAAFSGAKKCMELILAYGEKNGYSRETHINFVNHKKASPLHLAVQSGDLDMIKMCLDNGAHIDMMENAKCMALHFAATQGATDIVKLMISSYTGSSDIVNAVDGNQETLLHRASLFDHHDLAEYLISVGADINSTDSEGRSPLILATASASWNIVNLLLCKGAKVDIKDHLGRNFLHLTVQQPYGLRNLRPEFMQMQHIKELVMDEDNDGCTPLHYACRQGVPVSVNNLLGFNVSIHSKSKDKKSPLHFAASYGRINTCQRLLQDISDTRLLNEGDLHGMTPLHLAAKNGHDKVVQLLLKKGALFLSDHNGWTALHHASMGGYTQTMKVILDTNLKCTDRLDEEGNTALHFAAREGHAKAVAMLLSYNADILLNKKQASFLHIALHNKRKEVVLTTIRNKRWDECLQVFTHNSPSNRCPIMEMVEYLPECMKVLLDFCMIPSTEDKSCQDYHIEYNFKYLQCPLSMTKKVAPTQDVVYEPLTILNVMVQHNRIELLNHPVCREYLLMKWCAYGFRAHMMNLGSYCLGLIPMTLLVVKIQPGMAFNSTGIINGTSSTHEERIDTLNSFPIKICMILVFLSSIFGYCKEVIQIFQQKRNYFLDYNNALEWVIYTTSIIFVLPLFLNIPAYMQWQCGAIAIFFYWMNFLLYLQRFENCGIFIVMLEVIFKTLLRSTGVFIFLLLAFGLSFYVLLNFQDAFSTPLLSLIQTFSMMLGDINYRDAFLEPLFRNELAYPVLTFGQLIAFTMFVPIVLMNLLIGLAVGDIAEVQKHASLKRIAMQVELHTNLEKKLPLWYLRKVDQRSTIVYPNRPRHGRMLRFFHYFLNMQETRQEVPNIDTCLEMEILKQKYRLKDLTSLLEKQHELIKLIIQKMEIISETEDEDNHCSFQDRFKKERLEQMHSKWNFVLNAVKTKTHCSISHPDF

For `NCC1(CC(=O)O)CCCCC1` [gabapentin, reference compound], the “conditioned place preference: time in gabapentin-paired chamber, SNL rats” value ([1]; 60 mg/kg, saline-paired chamber as comparison) was “significantly increased” and the “chamber preference in sham-operated rats” value ([1]; gabapentin 60 mg/kg, sham-operated) was “did not induce chamber preference”.
With `CCCCCCCCCCCCCC(=O)N[C@@H](Cc1c[nH]c2ccccc12)C(=O)N[C@@H](CCCCN)C(=O)N[C@H](C(=O)N[C@@H](CCCNC(=N)N)C(=O)N[C@@H](CCC(N)=O)C(=O)N[C@@H](CCCNC(=N)N)C(=O)N[C@@H](CC(N)=O)C(=O)N[C@@H](CCCCN)C(=O)N[C@@H](CCCCN)C(=O)N[C@H](C(=O)N[C@@H](CCC(N)=O)C(=O)N[C@@H](CCC(N)=O)C(=O)N[C@@H](CCC(N)=O)C(=O)N[C@@H](CCC(=O)O)C(=O)N[C@@H](CO)C(=O)N[C@@H](CCC(N)=O)C(=O)N[C@H](C(=O)N[C@@H](C)C(=O)N[C@@H](CC(C)C)C(=O)N[C@H](C(=O)N[C@H](C(=O)N[C@@H](CC(N)=O)C(=O)N[C@@H](CCC(N)=O)C(=O)N[C@@H](CCCNC(=N)N)C(=O)N[C@@H](CS)C(=O)N[C@@H](CC(C)C)C(=O)N[C@@H](Cc1ccccc1)C(=O)N[C@@H](C)C(=O)O)C(C)C)C(C)C)[C@@H](C)O)C(C)C)C(C)C` [T100-Mut] (Myristoyl-WKVRQRNKKVQQQESQTALVVNQRCLFA-OH) the paclitaxel-induced mechanical hyperalgesia [2] was “attenuated; also recorded: alleviated”, the “MO-induced acute pain in TRPV1-/- mice” value [3] was “did not perturb; also recorded: no effect” and the “MO-induced mechanical hyperalgesia in TRPV1-/- mice” value [3] was “did not perturb; also recorded: no effect”. For the same compound, the “efficacy and potency of inhibiting neuropathic pain compared with HC-030031” value ([4]; SNL rats, intrathecal) was “comparable or better efficacy and potency”, the EC50 ([4]; rat, in vivo) was 29.3 µM and the “reduction in the percentage of cells responding to MO” value (TRPA1 [5]; heterologous system, T100-Mut treatment vs scrambled) was 65%. For the same compound, the “percentage of cells responsive to MO” value (TRPA1 [5]; peptide 200 nM pre-treatment, 500 nM MO, HEK293T TRPA1+TRPV1) was 6±2.4%.
`O=CC=Cc1ccccc1` [CA, cinnamaldehyde, reference compound] showed an EC50 (TRPA1 [6]; cells expressing A1+V1) of 57 µM and an EC50 (TRPA1 [6]; cells expressing A1+V1+Tmem100) of 21 µM.
“TRPV1 (expressed in heterologous cells: CHO, HEK293T) (receptor)” showed an MO (10 µM)-evoked Ca2+ influx, CHO cells, with Tmem100-3Q co-expressed (1:1:4) [7] of 321 nM, an MO (10 µM)-gated whole-cell current density, CHO cells, with Tmem100-3Q co-expressed (1:1:4) [7] of 39.2 pA/pF and an MO (10 µM)-induced single-channel activity (NPo), CHO cells, with Tmem100-3Q co-expressed (1:1:4) [7] of 0.16. For the same compound, the MO (10 µM)-induced single-channel activity (NPo), CHO cells, with wild-type Tmem100 co-expressed (1:1:4) [7] was 1.05.
In the case of `CC(C)c1ccc(NC(=O)Cn2cnc3c2c(=O)n(C)c(=O)n3C)cc1` [HC-030031, reference compound], the “contralateral PWT after drug injection” value ([4]; intrathecal 10 μl) is reported as “did not change significantly”, the “ipsilateral paw withdrawal threshold (PWT) vs pre-drug” value ([4]; intrathecal 10 μl, h-T100 10-100 μM, HC-030031 10-200 μM, scrambled 100 μM) is reported as “increased” and the EC50 ([4]; intrathecal, 10 μl, SNL rats, read-out: EC50 for inhibiting pain) is reported as 58.2 µM.
